Source: patent US12233068B2, “Combination of active agents for the treatment of progressive fibrosing interstitial lung diseases (PF-ILD)” (Boehringer Ingelheim International GmbH, priority 2017, dated 2025)
Where two headings read alike, the source gives them in different places.

Assays:
human COPD-patients = settings: 500 μg daily; cited from earlier work
rat = settings: in vivo; cited from earlier work
[1] = test system: TGF-β-stimulated α-SMA protein expression of human lung fibroblasts from patients with IPF; experiment: α-SMA (smooth muscle actin) protein assay (Western replacement assay, MSD), Experiment A; type: cell-based; settings: for IC50: n=5 donors; for sign of inhibition of TGF-β-stimulated α-SMA protein expression over the concentration/inhibition curve: low PDE4-inhibitor concentrations, alone or in combination with Nintedanib
Protocol: (§1) Lung fibroblasts of IPF-patients (IPF-LF cells) grown in 96-well plates were incubated for min with different concentrations of the PDE4 inhibitors “Compound of formula III”, “Apremilast” or “Roflumilast-N-Oxide” or with a combination of each of the aforementioned PDE4-inhibitors with Nintedanib.
(§2) After compound incubation cells were stimulated with the assay-relevant stimulus and incubated for the assay—relevant time in the presence of the test compounds.
α-SMA protein was determined by a Western-replacement assay (MSD) using monoclonal anti smooth muscle actin antibodies.
IPF-lung fibroblasts (passage 5 to 8) were seeded in 96-well cell culture plates at 4500 cells/well with 100 μL/well FBM+supplements. 24 h after seeding the cells were washed once with FBM medium without supplements and starved for 24 h.
In experiment A1) the PDE4B-inhibitor of formula III was used as a “test compound” • in rising concentrations either alone (see full circles and black solid curve in FIG. 1) or • in rising concentrations together with a fixed concentration of 100 nMol/L of Nintedanib (see empty circles and grey solid line in FIG. 1). Experiment A2)
In experiment A2) Apremilast was used as a “test compound” • in rising concentrations either alone (see full circles and black solid curve in FIG. 2) or • in rising concentrations together with a fixed concentration of 100 nMol/L of Nintedanib (see empty circles and grey solid line in FIG. 2). Experiment A3)
In experiment A3) Roflumilast-N-oxide was used as a “test compound” • in rising concentrations either alone (see full circles and black solid curve in FIG. 3) or • in rising concentrations together with a fixed concentration of 100 nMol/L of Nintedanib (see empty circles and grey solid line in FIG. 3). Test Compound Dilutions
All “test compounds” (the PDE4B-inhibitor of formula III, Apremilast or Roflumilast) were prepared 1000× in 0.1 mmol/L HCl or DMSO and a 1:3.16 dilution series was performed (in 0.1 mmol/L HCl or DMSO). To obtain 2× concentrated compound-medium a 1:500 dilution (2 μl of the 1000× dilution was added to 998 μl FBM plus 2 nmol/L PGE2) was prepared.
48 h after seeding, the medium was aspirated and FBM (100 μl per well) was added. After 1 h incubation at 37° C., 90 μl medium containing 2× concentrated compounds (at different concentrations) plus 2× concentrated PGE2 (2 nmol/L) was added for 30 min Final concentration for PGE2 was 1 nmol/L.
30 min after test compound pre-incubation (190 μL), 10 μl of 20× concentrated TGF-β was added and the cells stimulated for 48 h at a temperature of 37° C.
For this purpose the TGF-β stock solution (20 μg/mL reconstituted in 4 mmol/L sterile HCL) was diluted 1:200 in starvation medium to reach a concentration of 100 ng/mL. 10 μL of this TGF-β medium or starvation medium was added to indicated wells. The test compound concentration was maintained during the stimulation. The final TGF-β concentration was […].
48 h after stimulation supernatants were removed and stored at −80° C. for further experiments. Cells were washed once with ice cold PBS and 50 μl RIPA buffer containing 1× protease inhibitor was added per well. Lysates were incubated for 5 minutes on ice before stored at −80° C.
After thawing, 25 μl of each lysate was transferred to the membrane of the multi-array 96 well plate (MSD) and incubated for 2 h at room temperature with gentle shaking. After the incubation time, plates were washed 3 times with 200 μl 1× Tris-wash buffer (MSD) and 150 μl of 3% blocking buffer was added for 1 h. After blocking, plates were washed 3 times with 200 μl 1× Tris-wash buffer and 25 μl of the antibody solution (per plate 0.75 ml 3% blocking buffer, 2.25 ml 1× Tris-wash buffer, 1.2 μl anti-α-SMA antibody (1:2500), 15 μl goat anti-mouse sulfo-tag antibody (1:200) was added for 1 h. After AB-incubation plates were washed 3 times with 200 μl 1× Tris-wash buffer and 150 μl of 1×MSD read buffer was added per well. Plates were measured with Sector Imager (MSD). […]

[2] = test system: FGF plus IL-1β-stimulated proliferation of human lung fibroblasts from patients with IPF; experiment: Cell proliferation assay (BrdU incorporation), Experiment B; type: cell-based; settings: for IC50 of PDE4 inhibitor alone compared to IC50 of its combination with Nintedanib (proliferation): IC50 alone / IC50 with 100 nMol/L Nintedanib; for IC50: n=5 donors; for effect of the combination with Nintedanib on inhibition of fibroblast proliferation versus calculated additive curve: measured curve with 100 nMol/L Nintedanib compared with calculated additive curve (Poch & Holzmann)
Protocol: as §1, §2
BrdU incorporated in the DNA of proliferating cells was determined by ELISA. BrdU is an analog of the DNA precursor thymidine. In proliferating cells, the DNA has to be replicated before the division can take place. If BrdU is added to the cell culture, proliferating cells will incorporate it into their DNA just like they would incorporate thymidine. The amount of BrdU in the DNA of cells can be detected with specific anti-BrdU fluorescent antibodies followed by flow cytometry or by cellular ELISA with monoclonal antibodies against BrdU.
IPF-lung fibroblasts (passage 5 to 8) were seeded in 96-well cell culture plates at 2500 cells/well with 100 μL/well FBM+supplements. 24 h after seeding the cells were washed once with FBM medium without supplements and then kept in this medium for 24 h starvation.
In experiment B1) the PDE4B-inhibitor of formula III was used as a “test compound” • in rising concentrations either alone (see full circles and black solid curve in FIG. 4) or • in rising concentrations together with a fixed concentration of 100 nMol/L of Nintedanib (see empty circles and grey solid line in FIG. 4).
In experiment B2) Apremilast was used as a “test compound” • in rising concentrations either alone (see full circles and black solid curve in FIG. 5) or • in rising concentrations together with a fixed concentration of 100 nMol/L of Nintedanib (see empty circles and grey solid line in FIG. 5).
In experiment B3) Roflumilast-N-oxide was used as a “test compound” • in rising concentrations either alone (see full circles and black solid curve in FIG. 6) or • in rising concentrations together with a fixed concentration of 100 nMol/L of Nintedanib (see empty circles and grey solid line in FIG. 6).
All test compounds were prepared 1000× in 0.1 mmol/L HCl or DMSO and a 1:3.16 dilution series was performed (in 0.1 mmol/L HCl or DMSO). To obtain 1× concentrated compound medium 1 μl of the 1000×DMSO dilution was added to 999 μl FBM.
48 h after seeding, medium was removed by suction and 90 μl compound- or starvation medium was added for 30 min
30 min after test compound pre-incubation (90 μL), 10 μl of 10× concentrated FGF plus IL-1β was added and the cells were stimulated for 92 h at a temperature of 37° C.
For this purpose the FGF and IL-1β stock solutions (250 μg/mL and 10 μg/mL respectively) were diluted in starvation medium to reach a concentration of 200 ng/mL and 300 pg/mL for FGF and IL-1β respectively. 10 μL of this stimulus medium or starvation medium was added to the indicated wells. The test compound concentration was maintained during the stimulation.
The final FGF concentration was 20 ng/mL. The final IL-1β concentration was 30 pg/mL.
Proliferation was determined by a colorimetric immunoassay for the quantification of cell proliferation, based on the measurement of BrdU incorporation during DNA synthesis. The assay was carried out according to the manufacturer's instructions.
72 h after stimulation a 1:100 dilution of BrdU in starvation medium (resulting concentration 100 μmol/L) was performed and 10 μl added per well (end-concentration per well 10 μmol/l). About 18 h later the BrdU medium was removed by suction. Cells were fixed and denatured for 30 min at room temperature with FixDenat reagent. The reagent was removed by tapping and the anti-BrdU-POD working solution was added (incubation time: 90 min). The plate was washed three times with 200 μL washing buffer before incubation with substrate solution for about 10 min. […]

## O=C(Nc1c(Cl)cncc1Cl)c1ccc(OC(F)F)c(OCC2CC2)c1 [Roflumilast]
Human COPD-patients
  patients with decreased weight: 7.5%
  patients with diarrhea: 9.5%
  patients with headache: 4.4%
  patients with nausea: 4.7%
rat
  gastrointestinal side effects in similar gastric emptying and intestinal transit experiments: clear trend to show gastrointestinal side effects

## O=C(Nc1c(Cl)c[n+]([O-])cc1Cl)c1ccc(OC(F)F)c(OCC2CC2)c1 [Roflumilast N-Oxide]
[1]; PDE4 inhibitor alone, IPF lung fibroblasts, read-out: IC50, inhibition of TGF-β-stimulated α-SMA protein expression
  IC50: 14 nM
[1]; PDE4 inhibitor in rising concentrations with fixed 100 nMol/L Nintedanib, read-out: IC50, inhibition of TGF-β-stimulated α-SMA protein expression, combination with Nintedanib
  IC50: 8.5 nM
[1]
  sign of inhibition of TGF-β-stimulated α-SMA protein expression over the concentration/inhibition curve: negative inhibitions
[2]
  IC50 of PDE4 inhibitor alone compared to IC50 of its combination with Nintedanib (proliferation): 0.82 fold
  effect of the combination with Nintedanib on inhibition of fibroblast proliferation versus calculated additive curve: additive effect
[2]; PDE4 inhibitor alone, IPF lung fibroblasts, read-out: IC50, inhibition of FGF plus IL-1β-stimulated proliferation
  IC50: 0.44 nM
[2]; PDE4 inhibitor in rising concentrations with fixed 100 nMol/L Nintedanib, read-out: IC50, inhibition of FGF plus IL-1β-stimulated proliferation, combination with Nintedanib
  IC50: 0.534 nM

## COC(=O)c1ccc2c(c1)NC(=O)/C2=C(\Nc1ccc(N(C)C(=O)CN2CCN(C)CC2)cc1)c1ccccc1 [Nintedanib]
[1]; 100 nM Nintedanib alone
  inhibitory effect on TGF-β-stimulated α-SMA protein expression (in words): no inhibitory effect
[1]; 100 nMol/L Nintedanib alone, FIGS. 1, 2 and 3
  Inhibition of TGF-β-stimulated α-SMA protein expression: ≤ 0
[2]; Nintedanib alone, 100 nMol/L
  inhibitory effect on human lung fibroblasts proliferation (in words): clear inhibitory effect

## CCOc1cc([C@@H](CS(C)(=O)=O)N2C(=O)c3cccc(NC(C)=O)c3C2=O)ccc1OC [Apremilast]
[1]; Homo sapiens, Fibroblast, PDE4 inhibitor alone, IPF lung fibroblasts, read-out: IC50, inhibition of TGF-β-stimulated α-SMA protein expression
  IC50: 3000 nM
[1]; Homo sapiens, Fibroblast, PDE4 inhibitor in rising concentrations with fixed 100 nMol/L Nintedanib, read-out: IC50, inhibition of TGF-β-stimulated α-SMA protein expression, combination with Nintedanib
  IC50: 2000 nM
[1]
  sign of inhibition of TGF-β-stimulated α-SMA protein expression over the concentration/inhibition curve: negative inhibitions
[2]; Homo sapiens, Fibroblast, PDE4 inhibitor alone, IPF lung fibroblasts, read-out: IC50, inhibition of FGF plus IL-1β-stimulated proliferation
  IC50: 1800 nM
[2]; Homo sapiens, Fibroblast, PDE4 inhibitor in rising concentrations with fixed 100 nMol/L Nintedanib, read-out: IC50, inhibition of FGF plus IL-1β-stimulated proliferation, combination with Nintedanib
  IC50: 1600 nM
[2]
  IC50 of PDE4 inhibitor alone compared to IC50 of its combination with Nintedanib (proliferation): 1.13 fold
  effect of the combination with Nintedanib on inhibition of fibroblast proliferation versus calculated additive curve: additive effect
